Experiment [1] deals with T1, Protein cereblon/N(6)-adenosine-methyltransferase catalytic subunit METTL3 (Homo sapiens) (UniProt Q96SW2+Q86U44). Description: PROTAC activity at CRBN/METTL3 in human MOLM-13 cells assessed as induction of METTL3 degradation at 1 uM by Western blot analysis relative to control. The format is cell-based.
Experiment [2] concerns the target T1, Protein cereblon/N(6)-adenosine-methyltransferase catalytic subunit METTL3 (Homo sapiens). Description: PROTAC activity at CRBN/METTL3 in human MOLM-13 cells assessed as induction of METTL3 degradation at 10 uM by Western blot analysis relative to control. The format is cell-based. On the technique in general: A western blot detects proteins with antibodies after separation by electrophoresis.

For another experiment, the system named is MOLM-13. Description: Antiproliferative activity against human MOLM-13 cells assessed as inhibition of cell proliferation measured after 72 hrs by Celltiter Glo luminescent cell viability assay. It is filed as functional, cell-based. Conditions: MOLM-13, 72 h. A general note: In ATP-based viability assays light output follows the ATP content of the culture.

A further experiment relates to GES1. Description: Anticancer activity against human GES1 cells assessed as inhibition of cell growth incubated for 72 hrs by cell viability assay. It is filed as functional, cell-based.
For another experiment, the system named is AGS. Description: Anticancer activity against human AGS cells assessed as inhibition of cell growth incubated for 72 hrs by cell viability assay. The format is functional, cell-based.
Another experiment deals with SNU-484. Description: Anticancer activity against human SNU484 cells assessed as inhibition of cell growth incubated for 72 hrs by cell viability assay. It is filed as functional, cell-based.
For experiment [3], the target named is T2, von Hippel-Lindau disease tumor suppressor/N(6)-adenosine-methyltransferase catalytic subunit METTL3 (Homo sapiens, UniProt P40337+Q86U44). Description: PROTAC activity at VHL/METTL3 in human MOLM-13 cells assessed as reduction in METTL3 level at 1 uM incubated for 24 hrs by Western blot analysis. The format is cell-based.
The target in experiment [4] is N6-adenosine-methyltransferase catalytic subunit (Homo sapiens) (UniProt Q86U44). Description: Induction of thermal stabilization of METTL3 in human MOLM-13 cells at 52.4 to 54.8 degreeC incubated for 1 hrs by cellular thermal shift assay. The format is cell-based.
The test system of a further experiment is HeLa. Description: Binding affinity to METTL3/GFP-fused BRD4 (unknown origin) expressed in HeLa cells presence of MZ1 by Western blot analysis. It is filed as cell-based. As to conditions: Homo sapiens.
Experiment [5] addresses T2, von Hippel-Lindau disease tumor suppressor/N(6)-adenosine-methyltransferase catalytic subunit METTL3. Description: PROTAC activity at VHL/METTL3 (unknown origin) expressed in HeLa cells assessed as reduction in BRD4-eGFP_mCherry level incubated for 4 hrs in presence of MZ1 by flow cytometry analysis. The format is cell-based. For orientation: Flow cytometry measures light scatter and fluorescence of single cells or particles in a stream.

Experiment [6] shares this target. Description: PROTAC activity at VHL/METTL3 in human MOLM-13 cells assessed as induction of METTL3 degradation at 1 uM by Western blot analysis relative to control. The format is cell-based.
Experiment [7] shares this target. Description: PROTAC activity at VHL/METTL3 in human MOLM-13 cells assessed as induction of METTL3 degradation at 10 uM by Western blot analysis relative to control. The format is cell-based.

The structures appear in SMILES notation. Calls of active or inactive are those of the source. No cut-off for these calls is given here.

T2 sequence (Q86U44 2-580 partner limits assumed): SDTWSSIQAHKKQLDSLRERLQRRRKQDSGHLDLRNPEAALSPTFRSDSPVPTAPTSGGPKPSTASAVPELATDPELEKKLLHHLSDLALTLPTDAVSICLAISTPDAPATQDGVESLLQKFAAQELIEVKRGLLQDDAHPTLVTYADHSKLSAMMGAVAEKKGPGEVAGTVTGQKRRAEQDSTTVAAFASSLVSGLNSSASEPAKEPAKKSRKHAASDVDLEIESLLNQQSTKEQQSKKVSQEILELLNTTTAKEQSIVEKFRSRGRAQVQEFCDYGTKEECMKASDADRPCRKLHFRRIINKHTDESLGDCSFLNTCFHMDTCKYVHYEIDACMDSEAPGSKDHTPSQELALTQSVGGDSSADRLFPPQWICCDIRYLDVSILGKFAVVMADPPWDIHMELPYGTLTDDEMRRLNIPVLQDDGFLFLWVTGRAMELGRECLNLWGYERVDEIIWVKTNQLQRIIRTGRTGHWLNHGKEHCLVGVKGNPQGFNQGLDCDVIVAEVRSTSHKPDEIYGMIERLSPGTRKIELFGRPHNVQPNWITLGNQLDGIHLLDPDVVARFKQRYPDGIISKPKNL
T2 sequence (P40337 whole entry): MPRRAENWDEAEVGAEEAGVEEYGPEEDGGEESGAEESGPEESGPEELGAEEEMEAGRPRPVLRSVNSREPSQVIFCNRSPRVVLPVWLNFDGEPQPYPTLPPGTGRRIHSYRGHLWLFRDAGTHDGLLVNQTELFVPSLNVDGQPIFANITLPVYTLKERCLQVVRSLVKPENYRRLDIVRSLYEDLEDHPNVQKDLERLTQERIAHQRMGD
T1 sequence (Q86U44 whole entry, looked up): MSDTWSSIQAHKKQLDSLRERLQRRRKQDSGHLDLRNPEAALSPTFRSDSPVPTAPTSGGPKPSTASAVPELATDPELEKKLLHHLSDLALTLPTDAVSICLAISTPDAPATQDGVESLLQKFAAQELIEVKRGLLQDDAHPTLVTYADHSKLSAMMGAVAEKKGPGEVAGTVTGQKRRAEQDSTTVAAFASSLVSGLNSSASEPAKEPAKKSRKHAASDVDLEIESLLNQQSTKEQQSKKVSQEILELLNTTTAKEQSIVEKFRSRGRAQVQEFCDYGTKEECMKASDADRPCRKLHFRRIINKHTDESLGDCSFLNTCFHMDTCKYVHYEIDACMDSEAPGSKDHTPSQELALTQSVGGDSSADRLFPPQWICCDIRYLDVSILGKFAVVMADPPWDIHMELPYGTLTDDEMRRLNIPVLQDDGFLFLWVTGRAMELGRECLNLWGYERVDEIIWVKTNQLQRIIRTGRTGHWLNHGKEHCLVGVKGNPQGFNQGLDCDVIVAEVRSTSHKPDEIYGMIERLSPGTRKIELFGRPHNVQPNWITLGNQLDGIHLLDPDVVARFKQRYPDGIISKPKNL
T1 sequence (Q96SW2 whole entry, looked up): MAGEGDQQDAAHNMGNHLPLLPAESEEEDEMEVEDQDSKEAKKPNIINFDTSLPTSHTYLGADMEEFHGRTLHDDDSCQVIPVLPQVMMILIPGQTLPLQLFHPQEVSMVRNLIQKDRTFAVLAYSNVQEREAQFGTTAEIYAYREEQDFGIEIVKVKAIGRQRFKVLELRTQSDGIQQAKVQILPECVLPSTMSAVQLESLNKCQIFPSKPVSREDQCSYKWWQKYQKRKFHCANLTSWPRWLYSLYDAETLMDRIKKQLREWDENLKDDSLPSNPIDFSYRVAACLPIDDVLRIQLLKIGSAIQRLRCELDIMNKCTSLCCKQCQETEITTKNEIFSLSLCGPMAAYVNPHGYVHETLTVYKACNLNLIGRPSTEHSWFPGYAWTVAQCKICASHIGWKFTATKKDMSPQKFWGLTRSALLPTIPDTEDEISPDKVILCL
N6-adenosine-methyltransferase catalytic subunit (Homo sapiens), sequence (Q86U44 whole entry, the tested form may be a part): as the sequence (Q86U44 whole entry, looked up) above

Take `CC1(C)CCN(Cc2cc(F)c(N3CC(=O)NC4(CCN(c5cc(NCCCCCCCCCCC(=O)N6CCN(c7ccc8c(c7)C(=O)N(C7CCC(=O)NC7=O)C8=O)CC6)ncn5)CC4)C3)cc2F)CC1` (configuration not stated): the figures for the Activity in experiment [1] and in [2] were 9% and 22%, respectively.
Usually IC50 stands for the midpoint of a concentration-inhibition curve. Turning to `CNc1cc(N2CCC3(CC2)CN(c2cc(F)c(CN4CCC(C)(C)CC4)cc2F)CC(=O)N3)ncn1`, the IC50 with MOLM-13 came out at 6.17 µM. Also, the result in the experiment on GES1, in the experiment on AGS and in the experiment on SNU-484 was inactive.
For the molecule `Cc1ncsc1-c1ccc(CNC(=O)[C@@H]2C[C@H](O)CN2C(=O)[C@@H](NC(=O)CCCCCCCNc2cc(N3CCC4(CC3)CN(c3cc(F)c(CN5CCC(C)(C)CC5)cc3F)CC(=O)N4)ncn2)C(C)(C)C)cc1`, in experiment [3], the result was inactive. Besides, the result (in experiment [4]; with HeLa; in experiment [5]) was Active.
As to `Cc1ncsc1-c1ccc(CNC(=O)[C@@H]2C[C@@H](O)CN2C(=O)[C@@H](NC(=O)CCCCCCCCCCNc2cc(N3CCC4(CC3)CN(c3cc(F)c(CN5CCC(C)(C)CC5)cc3F)CC(=O)N4)ncn2)C(C)(C)C)cc1`, the figures for the Activity in experiment [6] and in [7] were 34% and 55%, respectively.

Values taken from ChEMBL document CHEMBL6127062, “Targeted degradation of METTL3 against acute myeloid leukemia and gastric cancer” (Eur J Med Chem, 2024).
